IC50 data for 27 compounds are collected here from patent US9579319B2 (Redx Pharma PLC, priority 2013, dated 2017).

The structures appear in SMILES notation. Read-outs that look alike come from different tables or passages of the source.

The assay relates to Hedgehog signalling pathway. The assay is described as follows: Gli-reporter NIH3T3 luciferase assay (Hedgehog pathway inhibition). Type of assay: cell-based. The settings on record: NIH3T3, Gli-reporter NIH-3T3 cells, recombinant mouse sonic hedgehog, 24 hours, luminescence. The procedure:
In vitro biological evaluation of compounds of the invention was carried out using the procedure detailed below. The procedure provides activity data for the compounds of the invention against the Hedgehog signalling pathway. The activity is represented as IC50 values in Table 12 below.
The Gli-reporter NIH3T3 cell line (BPS Biosciences) was grown according to the suppliers recommendations. Briefly, cells were maintained in growth medium (DMEM supplemented with 10% calf serum, 1% Penicillin/Streptomycin, and 500 µg/mL of Geneticin) and grown at 37° C., 5% CO2. In order to passage cells they were first rinsed with phosphate buffered saline before the addition of 0.05% Trypsin/EDTA. Fresh growth media was added and the cells were transferred to a centrifuge tube, spun and resuspended at an appropriate cell density.
Gli-reporter NIH-3T3 cells were seeded at 20,000 cells/well into 96 well, poly-D-lysine coated white clear bottomed full area TC plates in growth media (without geneticin). Three wells were left with just media as cell free controls. Cells were then incubated for 24 hours at 37° C. in a 5% CO2.
Serial dilutions of the test compounds were prepared in 100% DMSO. 10 μl of compound or DMSO from each well was pipetted into a sterile, 0.5 ml deep well conical bottomed 96 well plate (intermediate plate). 190 μl of warmed assay media (Opti-MEM supplemented with 0.5% calf serum, 1% non-essential amino acids, 1 mM sodium pyruvate, 10 mM HEPES, 1% penicillin/Streptomycin) was then added to each well and mixed five times at 180 μl by electronic pipette to ensure homogeneity of the compound solution. This 1:20 dilution gives a top concentration of 50 μM in 5% DMSO, 95% assay media. 10 μl was pipetted from each well of the intermediate plate into a second deep well sterile plate. 490 μl of warm assay media was then added to each well and mixed five times at 300 μl. This gives a final top concentration of 1 μM in 0.1% DMSO.
After the 24 hour incubation, media was carefully removed by pipette and replaced with 45 μl of compound dilutions in triplicate. This was incubated for one hour at 37° C. in a 5% CO2. After an hour, 5 μl 10 μg/mL recombinant mouse sonic hedgehog (R&D Systems) was added to each well and the plates were incubated for a further 24 hours at 37° C., 5% CO2.
After 24 hours, plates were removed from the incubator and left to acclimatise to room temperature for 20 minutes. 50 μl of OneGLO assay reagent (Promega) was then added to each well and the plates gently shaken for a further 30 minutes. Plates were then read for luminescence on the EnVision plate reader (PerkinElmer).

Where [1] appears, read: read-out: Category (Hedgehog pathway inhibition activity, IC50).

One may read the IC50 as the concentration needed to halve the response being measured. Regarding `Cn1nccc1-c1nnc(N2CCC(NCc3ccccc3OC(F)(F)F)CC2)c2ccccc12` [Example 36, 1-[4-(2-methylpyrazol-3-yl)phthalazin-1-yl]-N-[[2-(trifluoromethoxy)phenyl]methyl]piperidin-4-amine], the IC50 under setting [1] is 10 to 200 nM.

Regarding `CSc1nccc(CN(C)C2CCN(c3nnc(-c4ccnn4C)c(C)c3C)CC2)n1` [Example 93, 1-[4,5-dimethyl-6-(2-methylpyrazol-3-yl)pyridazin-3-yl]-N-methyl-N-[(2-methylsulfanylpyrimidin-4-yl)methyl]piperidin-4-amine], the IC50 (read-out: Gli luc IC50) was more than 200 nM.

As for `CN(Cc1ccc(F)cc1C(F)(F)F)C1CCN(c2nnc(N3CCOCC3)c3ccccc23)CC1` [Example 144, N-[[4-fluoro-2-(trifluoromethyl)phenyl]methyl]-N-methyl-1-(4-morpholinophthalazin-1-yl)piperidin-4-amine], the IC50 (read-out: Gli luc IC50) is more than 200 nM.

As to `CN(C(=O)NC(C)(C)C)C1CCN(c2nnc(-c3ccnn3C)c3ncccc23)CC1` [Example 129, 3-tert-butyl-1-methyl-1-[1-[8-(2-methylpyrazol-3-yl)pyrido[2,3-d]pyridazin-5-yl]-4-piperidyl]urea], the IC50 (read-out: Gli luc IC50) was more than 200 nM.

In the case of `Cn1nccc1-c1nnc(N2CCC(NCc3ccccc3)CC2)c2ccccc12` [Example 57, N-benzyl-1-[4-(2-methylpyrazol-3-yl)phthalazin-1-yl]piperidin-4-amine], the IC50 under setting [1] lay within 200 to 2000 nM.

For the compound `COc1ccc(-c2nnc(N3CCC(NS(=O)(=O)c4ccc(F)cc4C(F)(F)F)CC3)c(C)c2C)cn1` [Example 117, 4-fluoro-N-[1-[6-(6-methoxy-3-pyridyl)-4,5-dimethyl-pyridazin-3-yl]-4-piperidyl]-2-(trifluoromethyl)benzenesulfonamide], where the note is “read-out: Gli luc IC50”, the IC50 fell in the range of 10 to 200 nM.

In the case of `Cn1nccc1-c1nnc(N2CCC(NC(=O)Nc3ccc(F)cc3C(F)(F)F)CC2)c2ccccc12` [Example 23, 1-[4-fluoro-2-(trifluoromethyl)phenyl]-3-[1-[4-(2-methylpyrazol-3-yl)phthalazin-1-yl]-4-piperidyl]urea], the IC50 runs as follows: under setting [1], less than 10 nM; (read-out: Gli Luc nM (IC50)) 0.66 nM.

Regarding `Cn1nccc1-c1nnc(N2CCC(NC(=O)Nc3ccc(C(F)(F)F)cc3)CC2)c2ccccc12` [Example 14, 1-[1-[4-(2-methylpyrazol-3-yl)phthalazin-1-yl]-4-piperidyl]-3-[4-(trifluoromethyl)phenyl]urea], the IC50 under setting [1] was less than 10 nM and the IC50 (read-out: Gli Luc nM (IC50)) amounted to 0.71 nM.

As to `CN(Cc1ccc(F)cc1Cl)C1CCN(c2nnc(-c3ccnn3C)c3ccccc23)CC1` [Example 158, N-[(2-chloro-4-fluoro-phenyl)methyl]-N-methyl-1-[4-(2-methylpyrazol-3-yl)phthalazin-1-yl]piperidin-4-amine], the IC50 (read-out: Gli luc IC50) lay within 10 to 200 nM.

As to `CN(Cc1ccc(F)cc1C(F)(F)F)CC1CCN(c2nnc(-c3ccnn3C)c3ccccc23)C1` (centres unmarked) [Example 139, 1-[4-fluoro-2-(trifluoromethyl)phenyl]-N-methyl-N-[[1-[4-(2-methylpyrazol-3-yl)phthalazin-1-yl]pyrrolidin-3-yl]methyl]methanamine], where the note is “read-out: Gli luc IC50”, the IC50 was in the range of 10 to 200 nM.

As to `Cc1c(-c2ccncc2)nnc(N2CCC(NS(=O)(=O)c3ccc(F)cc3C(F)(F)F)CC2)c1C` [Example 119, N-[1-[4,5-dimethyl-6-(4-pyridyl)pyridazin-3-yl]-4-piperidyl]-4-fluoro-2-(trifluoromethyl)benzenesulfonamide], the IC50 (read-out: Gli luc IC50) was 10 to 200 nM.

On to `Cc1cc(-c2nnc(N3CCC(NS(=O)(=O)c4ccc(F)cc4C(F)(F)F)CC3)c(C)c2C)ccn1` [Example 118, N-[1-[4,5-dimethyl-6-(2-methyl-4-pyridyl)pyridazin-3-yl]-4-piperidyl]-4-fluoro-2-(trifluoromethyl)benzenesulfonamide], for which the IC50 (read-out: Gli luc IC50) was more than 200 nM.

For `COc1cc(-c2nnc(N3CCC(NCc4ccc(F)cc4C(F)(F)F)CC3)c(C)c2C)ccn1` [Example 121, N-[[4-fluoro-2-(trifluoromethyl)phenyl]methyl]-1-[6-(2-methoxy-4-pyridyl)-4,5-dimethyl-pyridazin-3-yl]piperidin-4-amine], where the note is “read-out: Gli luc IC50”, the IC50 was more than 200 nM.

`CN(Cc1ccccc1OC(F)(F)F)C1CCN(c2nnc(-c3ccnn3C)c3ccccc23)CC1` [Example 162, N-methyl-1-[4-(2-methylpyrazol-3-yl)phthalazin-1-yl]-N-[[2-(trifluoromethoxy)phenyl]methyl]piperidin-4-amine]: for the setting “read-out: Gli luc IC50”, the IC50 is less than 10 nM.

For the compound `COc1ccc(-c2nnc(N3CCC(NCc4ccc(F)cc4C(F)(F)F)CC3)c(C)c2C)cn1` [Example 120, N-[[4-fluoro-2-(trifluoromethyl)phenyl]methyl]-1-[6-(6-methoxy-3-pyridyl)-4,5-dimethyl-pyridazin-3-yl]piperidin-4-amine], under “read-out: Gli luc IC50”, the IC50 lay in the range of 10 to 200 nM.

For `Cn1nccc1-c1nnc(N2CCC(NC(=O)NC3CCCCC3)CC2)c2ccccc12` [Example 11, 1-cyclohexyl-3-[1-[4-(2-methylpyrazol-3-yl)phthalazin-1-yl]-4-piperidyl]urea], under setting [1], the IC50 was less than 10 nM.

Regarding `CN(C(=O)Nc1ccc(F)cc1C(F)(F)F)C1CCN(c2nnc(-c3ccnn3C)c3c2CCC3)CC1` [Example 125, 3-[4-fluoro-2-(trifluoromethyl)phenyl]-1-methyl-1-[1-[1-(2-methylpyrazol-3-yl)-6,7-dihydro-5H-cyclopenta[d]pyridazin-4-yl]-4-piperidyl]urea], where the note is “read-out: Gli luc IC50”, the IC50 is less than 10 nM.

On to `Cn1nccc1-c1nnc(N2CCC(NCc3ccc(OC(F)(F)F)cc3)CC2)c2ccccc12` [Example 20, 1-[4-(2-methylpyrazol-3-yl)phthalazin-1-yl]-N-[[4-(trifluoromethoxy)phenyl]methyl]piperidin-4-amine], for which the IC50 under setting [1] was in the range of 10 to 200 nM.

Regarding `CN(C1CCN(c2nnc(-c3ccnn3C)c3ccncc23)CC1)S(=O)(=O)c1ccc(F)cc1C(F)(F)F` [Example 103, 4-fluoro-N-methyl-N-[1-[1-(2-methylpyrazol-3-yl)pyrido[3,4-d]pyridazin-4-yl]-4-piperidyl]-2-(trifluoromethyl)benzenesulfonamide], the IC50 (read-out: Gli luc IC50) was 10 to 200 nM.

On to `COc1ccc(-c2nnc(N3CCC(N(C)Cc4ccc(F)cc4C(F)(F)F)CC3)c(C)c2C)cn1` [Example 110, N-[[4-fluoro-2-(trifluoromethyl)phenyl]methyl]-1-[6-(6-methoxy-3-pyridyl)-4,5-dimethyl-pyridazin-3-yl]-N-methyl-piperidin-4-amine], for which, for the setting “read-out: Gli luc IC50”, the IC50 lay in the range of 10 to 200 nM.

`CN(Cc1cccc(F)c1)C1CCN(c2nnc(-c3ccnn3C)c3ccccc23)CC1` [Example 65, (3-fluorophenyl)methyl-methyl-[1-[4-(2-methylpyrazol-3-yl)phthalazin-1-yl]-4-piperidyl]ammonium]: under setting [1], the IC50 is 10 to 200 nM.

With `CN(C1CCN(c2nnc(-c3ccnn3C)c3ccccc23)CC1)S(=O)(=O)c1ccc(F)cc1C(F)(F)F` [Example 48, 4-fluoro-N-methyl-N-[1-[4-(2-methylpyrazol-3-yl)phthalazin-1-yl]-4-piperidyl]-2-(trifluoromethyl)benzenesulfonamide], the IC50 under setting [1] is less than 10 nM.

`Cn1nccc1-c1nnc(N2CCC(NCc3cccc(F)c3)CC2)c2ccccc12` [Example 73, N-[(3-fluorophenyl)methyl]-1-[4-(2-methylpyrazol-3-yl)phthalazin-1-yl]piperidin-4-amine]: under setting [1], the IC50 lay within 10 to 200 nM.

For `Cc1c(-c2ccnn2C)nnc(N2CCC(N(C)Cc3ccncn3)CC2)c1C` [Example 171, 1-[4,5-dimethyl-6-(2-methylpyrazol-3-yl)pyridazin-3-yl]-N-methyl-N-(pyrimidin-4-ylmethyl)piperidin-4-amine], where the note is “read-out: Gli luc IC50”, the IC50 was more than 1000 nM.

For the compound `Cn1nccc1-c1nnc(N2CCC(NCc3ccc(C(F)(F)F)cc3)CC2)c2ccccc12` [Example 37, 1-[4-(2-methylpyrazol-3-yl)phthalazin-1-yl]-N-[[4-(trifluoromethyl)phenyl]methyl]piperidin-4-amine], the IC50 under setting [1] was in the range of 10 to 200 nM.

For the compound `Cc1c(-c2ccnn2C)nnc(N2CCC(N(C)Cc3cccc(OC(F)(F)F)c3)CC2)c1C` [Example 83, 1-[4,5-dimethyl-6-(2-methylpyrazol-3-yl)pyridazin-3-yl]-N-methyl-N-[[3-(trifluoromethoxy)phenyl]methyl]piperidin-4-amine], the half-maximal inhibitory concentration (IC50) (read-out: Gli luc IC50) lay in the range of 10 to 200 nM.

With `COc1ccc(NC(=O)NC2CCN(c3nnc(-c4ccnn4C)c4ccccc34)CC2)cc1` [Example 45, 1-(4-methoxyphenyl)-3-[1-[4-(2-methylpyrazol-3-yl)phthalazin-1-yl]-4-piperidyl]urea], the IC50 under setting [1] fell in the range of 10 to 200 nM.
